Results reported in PMC6016738 (European journal of medicinal chemistry, 2018).

Assays:
[1] = biological target: E. coli DNA gyrase (Escherichia coli, UniProt P0AES6); experiment: E. coli DNA gyrase supercoiling assay
[2] = test system: E. faecalis ATCC 29212; experiment: Antibacterial activity; assay type: cell-based, Enterococcus faecalis; conditions: for inhibition at 50 µM: Enterococcus faecalis, ATCC29212, read-out: growth inhibition of E. faecalis
[3] = biological target: E. coli topoisomerase IV (Escherichia coli, UniProt P20083); experiment: E. coli topoisomerase IV inhibition assay; conditions: for IC50: IC50 E. coli topo IV; for remaining activity at 1 µM: read-out: RA (residual activity) E. coli topo IV
E. coli topoisomerase IV, sequence (P20083 whole entry): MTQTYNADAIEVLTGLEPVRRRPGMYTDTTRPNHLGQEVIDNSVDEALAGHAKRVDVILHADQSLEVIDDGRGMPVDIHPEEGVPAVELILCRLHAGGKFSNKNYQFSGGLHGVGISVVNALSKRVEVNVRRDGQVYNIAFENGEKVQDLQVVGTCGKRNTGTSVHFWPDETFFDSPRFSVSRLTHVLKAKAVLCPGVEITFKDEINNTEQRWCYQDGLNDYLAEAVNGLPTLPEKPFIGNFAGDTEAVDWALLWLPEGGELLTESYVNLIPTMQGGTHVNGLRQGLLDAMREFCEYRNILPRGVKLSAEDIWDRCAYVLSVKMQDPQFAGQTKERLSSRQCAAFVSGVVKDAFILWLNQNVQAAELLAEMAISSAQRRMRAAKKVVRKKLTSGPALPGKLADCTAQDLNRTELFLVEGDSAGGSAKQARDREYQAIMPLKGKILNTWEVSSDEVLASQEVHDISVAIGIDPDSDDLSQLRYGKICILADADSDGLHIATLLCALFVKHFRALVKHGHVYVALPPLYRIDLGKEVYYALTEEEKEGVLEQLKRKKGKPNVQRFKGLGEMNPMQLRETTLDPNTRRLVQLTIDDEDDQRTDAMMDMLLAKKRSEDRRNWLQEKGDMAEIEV
E. coli topoisomerase IV, sequence (P0AFI2 whole entry partner): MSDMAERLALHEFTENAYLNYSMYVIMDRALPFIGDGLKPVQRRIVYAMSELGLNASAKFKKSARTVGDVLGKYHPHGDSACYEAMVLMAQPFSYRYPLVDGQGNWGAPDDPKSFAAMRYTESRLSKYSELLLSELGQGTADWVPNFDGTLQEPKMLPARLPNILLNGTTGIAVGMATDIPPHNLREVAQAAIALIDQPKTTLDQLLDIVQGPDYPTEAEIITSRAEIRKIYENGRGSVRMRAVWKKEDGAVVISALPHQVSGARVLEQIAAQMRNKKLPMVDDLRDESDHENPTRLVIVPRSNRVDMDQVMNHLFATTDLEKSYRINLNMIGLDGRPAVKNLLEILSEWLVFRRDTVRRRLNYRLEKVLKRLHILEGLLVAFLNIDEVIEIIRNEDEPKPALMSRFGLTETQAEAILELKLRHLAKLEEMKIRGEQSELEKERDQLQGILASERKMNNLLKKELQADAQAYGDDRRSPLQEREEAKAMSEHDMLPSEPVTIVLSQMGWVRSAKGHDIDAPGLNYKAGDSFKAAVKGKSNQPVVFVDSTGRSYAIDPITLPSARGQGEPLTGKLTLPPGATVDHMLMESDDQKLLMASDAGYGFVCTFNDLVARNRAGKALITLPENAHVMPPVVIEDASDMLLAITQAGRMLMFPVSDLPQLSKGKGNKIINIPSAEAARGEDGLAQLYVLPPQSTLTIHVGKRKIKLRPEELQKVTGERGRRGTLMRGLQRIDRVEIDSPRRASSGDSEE

[4] = test system: S. aureus ATCC 25923; experiment: Antibacterial activity; assay type: cell-based; conditions: Staphylococcus aureus, ATCC25923, read-out: growth inhibition of S. aureus
[5] = test system: E. coli JW5503 ΔtolC; experiment: Antibacterial activity; assay type: cell-based, Escherichia coli; conditions: inhibitor concentration 50 μM
[6] = Growth inhibition of the bacterial panel at 50 μM; assay type: cell-based; conditions: read-out: growth inhibition of bacteria (all tested strains, Table 1S)
[7] = test system: E. coli (ATCC 25922); experiment: MIC broth micro-dilution; assay type: cell-based, Escherichia coli
[8] = test system: E. coli (MG1655); experiment: MIC broth micro-dilution; assay type: cell-based, Escherichia coli
[9] = test system: E. coli (BW 25113); experiment: MIC broth micro-dilution; assay type: cell-based, Escherichia coli
[10] = test system: HepG2 cells; conditions: read-out: IC50 HepG2; literature value; cited from earlier work
[11] = test system: HUVEC cells; conditions: read-out: IC50 HUVEC; literature value; cited from earlier work

Compound: 4,5-Dibromo-N-(2-isopropoxy-4-((pyridin-2-ylmethyl)carbamoyl)phenyl)-1H-pyrrole-2-carboxamide [Compound 15a]
- RA (residual activity) E. coli gyrase ([1]; residual activity of the enzyme at 1 μM of the compound): 100%

Compound: CC(C)Oc1cc(C(=O)N[C@H](C(=O)O)C(C)C)ccc1NC(=O)c1cc(Br)c(Br)[nH]1 [Compound 8a, (4-(4,5-Dibromo-1H-pyrrole-2-carboxamido)-3-isopropoxybenzoyl)-L-valine]
- inhibition at 50 µM [2]: > 80%

Compound: Cc1[nH]c(C(=O)Nc2ccc(C(=O)N[C@@H](Cc3ccccc3)C(=O)O)cc2OC(C)C)c(Cl)c1Cl [Compound 8d]
- inhibition at 50 µM [2]: > 80%

Compound: Cc1[nH]c(C(=O)Nc2ccc(C(=O)N[C@@H](C)C(=O)O)cc2OC(C)C)c(Cl)c1Cl [Compound 8e]
- inhibition at 50 µM [2]: > 80%
- IC50 [3]: < 1000 nM

Compound: Cc1[nH]c(C(=O)Nc2ccc(C(=O)N[C@H](C)C(=O)O)cc2OC(C)C)c(Cl)c1Cl [Compound 8f]
- inhibition at 50 µM [2]: > 80%

Compound: Cc1[nH]c(C(=O)Nc2ccc(C(=O)N[C@@H](C)C(=O)O)cc2OCCNC(=O)OC(C)(C)C)c(Cl)c1Cl [Compound 8i]
- remaining activity at 1 µM [3]: 100%

Compound: COC(=O)[C@H](Cc1ccccc1)NC(=O)c1ccc(NC(=O)c2cc(Br)c(Br)[nH]2)c(OCCN)c1 [Compound 9a, (S)-2-(2-(4,5-Dibromo-1H-pyrrole-2-carboxamido)-5-((1-methoxy-1-oxo-3-phenylpropan-2-yl)carbamoyl)phenoxy)ethan-1-aminium chloride]
- inhibition at 50 µM [4]: > 80%
- inhibition at 50 µM [2]: > 80%

Compound: COC(=O)[C@H](C)NC(=O)c1ccc(NC(=O)c2[nH]c(C)c(Cl)c2Cl)c(OCCN)c1.Cl [Compound 9b]
- inhibition at 50 µM [4]: > 80%
- inhibition at 50 µM [2]: > 80%
- growth inhibition of E. coli JW5503 ΔtolC [5]: completely suppressed

Compound: NCCOc1cc(C(=O)NCC(=O)O)ccc1NC(=O)c1cc(Br)c(Br)[nH]1 [Compound 9c]
- inhibition at 50 µM [6]: < 36%

Compound: NCCOc1cc(C(=O)N[C@@H](Cc2ccccc2)C(=O)O)ccc1NC(=O)c1cc(Br)c(Br)[nH]1 [Compound 9d]
- inhibition at 50 µM [6]: < 36%

Compound: Cc1[nH]c(C(=O)Nc2ccc(C(=O)N[C@@H](C)C(=O)O)cc2OCCN)c(Cl)c1Cl [Compound 9e]
- inhibition at 50 µM [6]: < 36%
- IC50 [3]: < 1000 nM

Compound: Cc1[nH]c(C(=O)Nc2ccc(C(=O)N[C@@H](C)C(=O)NN)cc2OC(C)C)c(Cl)c1Cl [Compound 10a, (S)-3,4-Dichloro-N-(4-((1-hydrazineyl-1-oxopropan-2-yl)carbamoyl)-2-isopropoxyphenyl)-5-methyl-1H-pyrrole-2-carboxamide]
- inhibition at 50 µM [2]: > 80%
- remaining activity at 1 µM [3]: 100%

Compound: Cc1[nH]c(C(=O)Nc2ccc(C(=O)N[C@@H](C)c3n[nH]c(=O)o3)cc2OC(C)C)c(Cl)c1Cl [Compound 11a, (S)-3,4-Dichloro-N-(2-isopropoxy-4-((1-(5-oxo-4,5-dihydro-1,3,4-oxadiazol-2-yl)ethyl)carbamoyl)phenyl)-5-methyl-1H-pyrrole-2-carboxamide]
- inhibition at 50 µM [4]: > 80%
- inhibition at 50 µM [2]: > 80%
- MIC ([7]; Escherichia coli, ATCC25922, read-out: MIC E. coli (ATCC 25922)): > 50 µM
- MIC E. coli (ATCC 25922) ([7]; without PAβN): no bioactivity
- MIC ([8]; Escherichia coli, MG1655, read-out: MIC E. coli (MG1655)): > 50 µM
- MIC E. coli (MG1655) ([8]; without PAβN): no bioactivity
- MIC ([9]; Escherichia coli, read-out: MIC E. coli (BW 25113)): > 50 µM
- MIC E. coli (BW 25113) ([9]; without PAβN): no bioactivity

Compound: Cc1[nH]c(C(=O)Nc2ccc(C(=O)N[C@@H](C)c3n[nH]c(=O)o3)cc2OCCNC(=O)OC(C)(C)C)c(Cl)c1Cl [Compound 11b]
- inhibition at 50 µM [2]: > 80%

Compound: Cc1[nH]c(C(=O)Nc2ccc(C(=O)N[C@@H](C)c3n[nH]c(=O)o3)cc2OCCN)c(Cl)c1Cl [Compound 12, (S)-2-(2-(3,4-Dichloro-5-methyl-1H-pyrrole-2-carboxamido)-5-((1-(5-oxo-4,5-dihydro-1,3,4-oxadiazol-2-yl)ethyl)carbamoyl)phenoxy)ethan-1-aminium chloride]
- growth inhibition of E. faecalis ([2]; inhibitor concentration 50 μM): no growth inhibition
- IC50 [3]: < 1000 nM

Compound: O=C(O)CNC(=O)c1ccc(NC(=O)c2cc(Br)c(Br)[nH]2)cc1OCc1ccccc1 [Compound 23a, (2-(Benzyloxy)-4-(4,5-dibromo-1H-pyrrole-2-carboxamido)benzoyl)glycine]
- fold more active on E. coli gyrase than isopropoxy analogue 23c ([1]; ratio of IC50 values): 4 fold
- IC50 [3]: 42000 ± 11000 nM

Compound: CC(C)Oc1cc(NC(=O)c2cc(Br)c(Br)[nH]2)ccc1C(=O)NCC(=O)O [Compound 23c]
- remaining activity at 1 µM [3]: 100%

Compound: Cc1[nH]c(C(=O)Nc2ccc(C(=O)NCC(=O)O)c(OC(C)C)c2)c(Cl)c1Cl [Compound 23d]
- remaining activity at 1 µM [3]: 100%

Compound: COc1cc([C@@H]2c3cc4c(cc3[C@@H](O[C@@H]3O[C@@H]5CO[C@@H](C)O[C@H]5[C@H](O)[C@H]3O)[C@H]3COC(=O)[C@H]23)OCO4)cc(OC)c1O [Etoposide]
- IC50 [10]: 30200 nM
- IC50 [11]: 1250 nM
